Patent US4868321A, “Isothiocyanate intermediates” (FMC Corporation, priority 1988, dated 1989)

Experiments:
Format in all cases: in vivo
Cotton [1] = test: Preemergence Herbicidal Activity, Cotton; settings: Gossypium hirsutum, pre-emergence
Source text: (§1) The herbicidal data in the following Tables 3 and 4 was obtained in the manner described in PCT published application no. WO 85/01939, previously mentioned, usually employing solutions of the herbicidal compound in 50/50 acetone/water mixtures. In those tables, the test compounds are identified by numbers which correspond to those in Table 1, "kg/ha" is kilograms per hectare, and "% C" is percent control.

Soybean [2] = test: Preemergence Herbicidal Activity, Soybean; settings: Glycine max, pre-emergence
Source text: (§2) The herbicidal data in the following Tables 3 and 4 was obtained in the manner described in PCT published application no. […] In those tables, the test compounds are identified by numbers which correspond to those in Table 1, "kg/ha" is kilograms per hectare, and "% C" is percent control.

Field Corn [3] = test: Preemergence Herbicidal Activity, Field Corn; settings: Zea mays, pre-emergence
Source text: as §2

Wheat [4] = test: Preemergence Herbicidal Activity, Wheat; settings: Triticum aestivum, pre-emergence
Source text: as §2

Morningglory [5] = test: Preemergence Herbicidal Activity, Morningglory; settings: Ipomoea, pre-emergence
Source text: as §1

Velvetleaf [6] = test: Preemergence Herbicidal Activity, Velvetleaf; settings: Abutilon theophrasti, pre-emergence
Source text: as §1

Barnyardgrass [7] = test: Preemergence Herbicidal Activity, Barnyardgrass; settings: Echinochloa crus-galli, pre-emergence
Source text: as §2

Green Foxtail [8] = test: Preemergence Herbicidal Activity, Green Foxtail; settings: Setaria viridis, pre-emergence
Source text: as §2

Johnsongrass [9] = test: Preemergence Herbicidal Activity, Johnsongrass; settings: Sorghum halepense, pre-emergence
Source text: as §2

Cotton [10] = test: Postemergence Herbicidal Activity, Cotton; settings: Gossypium hirsutum, post-emergence
Source text: as §1

Soybean [11] = test: Postemergence Herbicidal Activity, Soybean; settings: Glycine max, post-emergence
Source text: as §2

Field Corn [12] = test: Postemergence Herbicidal Activity, Field Corn; settings: Zea mays, post-emergence
Source text: as §2

Wheat [13] = test: Postemergence Herbicidal Activity, Wheat; settings: Triticum aestivum, post-emergence
Source text: as §2

Morningglory [14] = test: Postemergence Herbicidal Activity, Morningglory; settings: Ipomoea, post-emergence
Source text: as §1

Velvetleaf [15] = test: Postemergence Herbicidal Activity, Velvetleaf; settings: Abutilon theophrasti, post-emergence
Source text: as §1

Barnyardgrass [16] = test: Postemergence Herbicidal Activity, Barnyardgrass; settings: Echinochloa crus-galli, post-emergence
Source text: as §2

Green Foxtail [17] = test: Postemergence Herbicidal Activity, Green Foxtail; settings: Setaria viridis, post-emergence
Source text: as §2

Johnsongrass [18] = test: Postemergence Herbicidal Activity, Johnsongrass; settings: Sorghum halepense, post-emergence
Source text: as §2

Field Bindweed [19] = test: Preemergence Herbicidal Activity, Field Bindweed; settings: pre-emergence, 8.0 kg/ha
Source text: as §1

Field Bindweed [20] = test: Postemergence Herbicidal Activity, Field Bindweed; settings: post-emergence, 8.0 kg/ha
Source text: as §1

Rice = test: Preemergence Herbicidal Activity, Rice; settings: Oryza sativa, pre-emergence, 0.5 kg/ha
Source text: as §2

Molecule `CS(=O)(=O)N(c1cc(-n2nnn(CCCF)c2=O)c(F)cc1Cl)S(C)(=O)=O` [Compound 9] has a plant injury at 1000 g/ha (Cotton [1]; 1.0 kg/ha) of 100%, a plant injury at 1000 g/ha (Soybean [2]; 1.0 kg/ha) of 50% and a plant injury at 1000 g/ha (Field Corn [3]; 1.0 kg/ha) of 100%. The plant injury at 1000 g/ha (Wheat [4]; 1.0 kg/ha) was 90%, the pest or weed control at 1000 g/ha (Morningglory [5]; 1.0 kg/ha) was 100% and the pest or weed control at 1000 g/ha (Velvetleaf [6]; 1.0 kg/ha) was 100%. For the same molecule, the pest or weed control at 1000 g/ha (Barnyardgrass [7]; 1.0 kg/ha) was 100%, the pest or weed control at 1000 g/ha (Green Foxtail [8]; 1.0 kg/ha) was 100% and the pest or weed control at 1000 g/ha (Johnsongrass [9]; 1.0 kg/ha) was 80%. The plant injury at 1000 g/ha (Cotton [10]; 1.0 kg/ha) was 100%, the plant injury at 1000 g/ha (Soybean [11]; 1.0 kg/ha) was 30% and the plant injury at 1000 g/ha (Field Corn [12]; 1.0 kg/ha) was 30%. The plant injury at 1000 g/ha (Wheat [13]; 1.0 kg/ha) was 80%, the pest or weed control at 1000 g/ha (Morningglory [14]; 1.0 kg/ha) was 100% and the pest or weed control at 1000 g/ha (Velvetleaf [15]; 1.0 kg/ha) was 100%. It also gave a pest or weed control at 1000 g/ha (Barnyardgrass [16]; 1.0 kg/ha) of 100%, a pest or weed control at 1000 g/ha (Green Foxtail [17]; 1.0 kg/ha) of 60% and a pest or weed control at 1000 g/ha (Johnsongrass [18]; 1.0 kg/ha) of 70%.

Molecule `CCS(=O)(=O)N(c1cc(-n2nnn(CCCF)c2=O)ccc1Cl)S(=O)(=O)CC` [Compound 18, 1-[4-chloro-3-[bis(N--ethylsulfonyl)-amino]phenyl]-1,4-dihydro-4-(3-fluoropropyl)-5H--tetrazol-5-one] has a plant injury at 8000 g/ha (Cotton [1]; 8.0 kg/ha) of 100%, a plant injury at 8000 g/ha (Soybean [2]; 8.0 kg/ha) of 10% and a plant injury at 8000 g/ha (Field Corn [3]; 8.0 kg/ha) of 0%. The plant injury at 8000 g/ha (Wheat [4]; 8.0 kg/ha) was 0%, the pest or weed control at 8000 g/ha (Field Bindweed [19]) was 30% and the pest or weed control at 8000 g/ha (Morningglory [5]; 8.0 kg/ha) was 40%. It also gave a pest or weed control at 8000 g/ha (Velvetleaf [6]; 8.0 kg/ha) of 95%, a pest or weed control at 8000 g/ha (Barnyardgrass [7]; 8.0 kg/ha) of 20% and a pest or weed control at 8000 g/ha (Green Foxtail [8]; 8.0 kg/ha) of 10%. It also gave a pest or weed control at 8000 g/ha (Johnsongrass [9]; 8.0 kg/ha) of 40%, a plant injury at 8000 g/ha (Cotton [10]; 8.0 kg/ha) of 60% and a plant injury at 8000 g/ha (Soybean [11]; 8.0 kg/ha) of 60%. The plant injury at 8000 g/ha (Field Corn [12]; 8.0 kg/ha) was 30%, the plant injury at 8000 g/ha (Wheat [13]; 8.0 kg/ha) was 10% and the pest or weed control at 8000 g/ha (Field Bindweed [20]) was 50%. For the same molecule, the pest or weed control at 8000 g/ha (Morningglory [14]; 8.0 kg/ha) was 70%, the pest or weed control at 8000 g/ha (Velvetleaf [15]; 8.0 kg/ha) was 95% and the pest or weed control at 8000 g/ha (Barnyardgrass [16]; 8.0 kg/ha) was 30%. The pest or weed control at 8000 g/ha (Green Foxtail [17]; 8.0 kg/ha) was 30% and the pest or weed control at 8000 g/ha (Johnsongrass [18]; 8.0 kg/ha) was 30%.

Molecule `CCS(=O)(=O)N(c1cc(-n2nnn(CCCF)c2=O)c(F)cc1Cl)S(=O)(=O)CC` [Compound 21, 1-[4-chloro-2-fluoro-5-[bis(N--ethylsulfonyl)amino]phenyl]-1,4-dihydro-4-(3-fluoropropyl)-5H--tetrazol-5-one] has a plant injury at 500 g/ha (Cotton [1]; 0.5 kg/ha) of 95%, a plant injury at 500 g/ha (Soybean [2]; 0.5 kg/ha) of 20% and a plant injury at 500 g/ha (Field Corn [3]; 0.5 kg/ha) of 90%. The plant injury at 500 g/ha (Rice) was 80%, the plant injury at 500 g/ha (Wheat [4]; 0.5 kg/ha) was 95% and the pest or weed control at 500 g/ha (Morningglory [5]; 0.5 kg/ha) was 95%. The pest or weed control at 500 g/ha (Velvetleaf [6]; 0.5 kg/ha) was 100%, the pest or weed control at 500 g/ha (Barnyardgrass [7]; 0.5 kg/ha) was 100% and the pest or weed control at 500 g/ha (Green Foxtail [8]; 0.5 kg/ha) was 100%. The pest or weed control at 500 g/ha (Johnsongrass [9]; 0.5 kg/ha) was 100%.
